Reference: paper PMC7377962 (Nature chemical biology, 2020)

Molecular target: T1, Mur23 (Streptomyces sp. NRRL 30471, UniProt F2WUD5)
T1 sequence (F2WUD5 1-388): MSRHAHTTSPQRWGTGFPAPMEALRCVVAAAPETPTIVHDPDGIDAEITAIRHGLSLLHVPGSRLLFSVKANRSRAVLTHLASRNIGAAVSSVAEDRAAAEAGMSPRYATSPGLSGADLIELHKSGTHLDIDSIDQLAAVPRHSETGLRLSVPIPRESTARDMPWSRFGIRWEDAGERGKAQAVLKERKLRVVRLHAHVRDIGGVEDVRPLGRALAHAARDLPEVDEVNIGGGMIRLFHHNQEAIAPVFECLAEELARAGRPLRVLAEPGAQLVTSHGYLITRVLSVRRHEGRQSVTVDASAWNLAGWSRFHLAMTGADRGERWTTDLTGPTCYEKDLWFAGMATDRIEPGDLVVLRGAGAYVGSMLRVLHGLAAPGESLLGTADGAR
Test: co-purification, UV/Vis spectrum
Assay type: binding
Settings: bound as purified

Cc1ncc(COP(=O)(O)O)c(C=O)c1O [PLP, pyridoxal-5′-phosphate]
co-purification, UV/Vis spectrum: Mur23 copurified with PLP as evident by the yellow color and the characteristic UV/Vis spectrum
